“Also recorded” adds a separate entry of the source.
Experiments:
[1] = tested on: TAIL7 cells; experiment: standard cell survival assay (ATP assay) of TAIL7 cells; format: cell-based; settings: Homo sapiens, 96 h
Source text: The compounds described herein decrease survival of leukemia cells.

[2] = tested on: STAT3; experiment: activation status of signaling pathways in T-ALL; format: cell-based
Method: Western blot analysis. For whole cell lysates, cells are harvested, lysed in RIPA buffer (Santa Cruz Biotechnology; Santa Cruz, Calif.), and protein is quantified and electrophoresed. Nuclear and cytoplasmic extracts are isolated using a conventional method (See, Jackson, (2006)). Immunoblotting is performed using the following antibodies: APE1 (Novus Biologicals; Littleton, Colo.), STAT1, STAT3, STAT5, p-STAT1(Y701), p-STAT3(Y705), p-STAT5 (Y694) (Cell Signaling; Danvers, Mass.), and tubulin (Sigma Aldrich) or GAPDH (Santa Cruz).
Biochemistry. […] That result is in contrast to what is observed with other compounds such as PI3K/Akt or mTOR.

[3] = Maximum tolerated dose (MTD); settings: in vivo, po
Source text: Maximum tolerated dose (MTD). […] Animals were monitored for up to 14 days after termination of dosing.

[4] = biological target: Ref-1 (Homo sapiens, UniProt P27695); experiment: conventional redox EMSA assay; format: biochemical
Source text: (§1) Biochemistry 50, 82-92 (2011). Nyland et al., Design and Synthesis of Novel Quinone Inhibitors Targeted to the Redox Function of Apurinic/Apyrimidinic Endonuclease 1/Redox Enhancing Factor-1 (Ape1/Ref-1). J Med Chem 53, 1200-1210 (2010). Kelley et al., Cancer Drug Discovery and Development (ed Rebecca G. Bagley) Springer (part of Springer Science+Business Media), 2010. Luo et al., Role of the multifunctional DNA repair and redox signaling protein Ape1/Ref-1 in cancer and endothelial cells: Small molecule inhibition of Ape1's redox function. Antioxid Redox Signal 10, 1853-1867 (2008). Georgiadis et al., Evolution of the redox function in mammalian Apurinic/apyrimidinic Mutation Research 643, 54-63 (2008).
Electrophoretic mobility shift assay (EMSA). EMSAs are performed as previously described (Georgiadis, (2008) #15789) with the some modifications. Briefly, for super-shift assay, 6 μg STAT3 antibody (Santa Cruz Biotechnology, Inc, Santa Cruz, Calif.) is pre-incubated with 15 mg nuclear extract from PaCa-2 cells (treated with 50 ng/mL IL-6 for 2 hrs in 2% serum), followed by 1 μg/mL poly(dI-dC).poly(dI-dC) (Amersham Biosciences, Piscataway, N.J.) and 0.1 pmol 5′HEX-labeled double-stranded oligonucleotide DNA (Midland Certified Reagent Company, Midland, Tex.) containing the STAT3 direct repeat consensus sequence for 15 min (Preston, (2005)). For the experiment of APE1 interacting with STAT3, purified APE1 protein is reduced with 2 mM DTT (dithiothreitol) for 10 min and diluted to a final concentration of 4 mg with 0.4 mM DTT in PBS. Reduced APE1 is added to 15 mg nuclear extract as above. The final concentration of DTT in redox reactions is 0.04 mM.

[5] = tested on: STAT3, AP-1, and NF-κB; experiment: DNA binding and transcriptional activity of the target TFs of Ref-1; format: biochemical; settings: STAT3, AP-1, NF-κB
Method: Electrophoretic mobility shift assay (EMSA). […] For the experiment of APE1 interacting with STAT3, purified APE1 protein is reduced with 2 mM DTT (dithiothreitol) for 10 min and diluted to a final concentration of 4 mg with 0.4 mM DTT in PBS. Reduced APE1 is added to 15 mg nuclear extract as above. The final concentration of DTT in redox reactions is 0.04 mM.

[6] = tested on: refractory T-ALL cells; experiment: xenograft model of leukemia; format: in vivo, NSG mice; settings: b.i.d., one cycle of 5 days; for circulating blasts (human CD45+ cells in peripheral blood): p<0.05 vs vehicle
Method: Xenograft models of childhood relapse, refractory ALL. The antileukemia efficacy of Ref-1 redox blockade by the compounds described herein is evaluated in xenograft models of human ALL. In a first phase, the xenograft model with TAIL7 cells is used to test the therapeutic efficacy of the test compound as monotherapy, and in dual-agent regimens combining test compound with agents used as frontline chemotherapy for T-ALL (Vincristine; Doxorubicin; Dexamethasone) and for relapse T-ALL (Methotrexate). […] Such models of childhood ALL are used in immunodeficient mice (NOD/SCID: terminal leukemia in 70-120 d; NSG: terminal leukemia in 28-35 days with TAIL7 cells), including specimens from relapsed and infant ALL.
Xenografts of pediatric relapse T-cell leukemia: TAIL7 cells or cells from patients with relapse T-ALL (high cellularity; ≧90% BM involvement) will be used for the xenografts; patient specimens will be provided by Dr. Batra, according with IRB regulations. Leukemia cells (1×10^6 TAIL7 cells; 2-3×10^6 patient cells/mice) will be transplanted IV into NSG mice (7-9 wk old). 19, 24 Mice will be monitored weekly for presence of human blasts in the PB, by flow cytometry.
NSG mice (n=5/group) transplanted with refractory T-ALL cells. […] At the end of treatment, frequency of human CD45+ cells was performed in the peripheral blood (PB) and in the bone marrow (BM). Animals are sacrificed for analysis.

[7] = tested on: T-ALL cells; experiment: Annexin V/PI assay of apoptosis; format: cell-based; settings: E3330 […] μM or 40 μM, d1 to d5
Source text: The compounds described herein cause apoptosis of leukemia cells, including leukemia T-ALL cells.

[8] = tested on: T-ALL lines from a murine model of T-cell leukemia induced by oncogenic Notch; experiment: ATP viability assay of leukemia cells from murine Notch-induced T-ALL; format: cell-based; settings: Mus musculus, T-ALL lines from mice with terminal Notch-induced disease
Source text: (§2) The compounds described herein are effective against leukemia cells harvested from the bone marrow (BM), thymus (T) or spleen (S). Cells are harvested from the bone marrow (BM), thymus (T) or spleen (S) of mice with terminal Notch (ICN)-induced T-ALL, as determined in a conventional ATP assay (viability at 96 hrs) of the leukemia cells cultured with IL-7. […] Similar inhibition is observed in immortalized Jurkat, SupT1, MOLT4, and HPB-ALL cell lines derived from relapse T-ALL patients, with IC50s from 10-30 μM. Relapse T-ALL lines (Jurkat, SupT1, MOLT4, and HPB-ALL) are reportedly resistant to treatment with glucocorticoids. The compounds described herein are also effective against TAIL7-Dexamethasone resistant cells, which show reduced sensitivity to inhibitors of other leukemia-associated signaling pathways (such as PI3K/Akt, mTOR), and to cytotoxic chemotherapy drugs.

[9] = tested on: T-ALL cells; experiment: potentiation of conventional drugs, ATP assay; format: cell-based; settings: fixed dose 20 μM, compared to vehicle
Source text: The compounds described herein potentiate the efficacy of conventional drugs for treating leukemia, such as doxorubicin and STATTIC. […]

[10] = tested on: leukemia cells; experiment: leukemia cell survival; format: cell-based; settings: primary cells from ALL patients, relapsed T-ALL, cells from murine Notch-induced leukemia
Method: as §1, with “The activity of other selective Ref-1 redox inhibitors are analyzed against leukemia cells according to conventional redox EMSA assays. See, Su, D. et al. Interactions of APE1 with a redox inhibitor: Evidence for an alternate conformation of the enzyme. Biochemistry” for “Biochemistry”

[11] = tested on: Survivin and Bcl-xL mRNA; experiment: quantitative PCR of survival genes; format: cell-based; settings: after 24 h at doses between 25-40 μM
Source text: The compounds described herein caused a substantial downregulation of survival genes regulated by STAT3 and NF-κB, such as Survivin, Bcl-xL, and miR-21.

[12] = tested on: Jurkat, SupT1, MOLT4, and HPB-ALL cell lines; experiment: viability of relapse T-ALL cell lines; format: cell-based; settings: Homo sapiens; immortalized lines derived from relapse T-ALL patients
Source text: as §2

Chain of Ref-1 (P27695 whole entry): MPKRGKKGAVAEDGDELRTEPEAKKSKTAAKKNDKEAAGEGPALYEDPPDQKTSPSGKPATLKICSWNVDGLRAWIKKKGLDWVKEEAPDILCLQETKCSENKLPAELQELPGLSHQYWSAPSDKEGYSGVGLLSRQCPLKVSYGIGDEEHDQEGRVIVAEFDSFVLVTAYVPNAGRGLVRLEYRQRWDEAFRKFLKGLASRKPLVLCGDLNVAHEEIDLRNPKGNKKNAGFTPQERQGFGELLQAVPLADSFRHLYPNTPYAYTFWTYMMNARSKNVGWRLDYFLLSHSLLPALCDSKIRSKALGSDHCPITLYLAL

SMILES | IC50 [1] | activation status of other signaling pathways involved in T-ALL [2] | phosphorylation state and nuclear translocation of STAT3 [2] | MTD [3] | IC50 [4] | DNA binding and transcriptional activity of the target TFs of Ref-1 [5] | frequency of CD45+ in the BM ([6]; 25 mg/kg/d) | circulating blasts (human CD45+ cells in peripheral blood) ([6]; 25 mg/kg/d) | leukemia cell apoptosis [7] | IC50 [8] | frequency of CD45+ in the BM ([6]; 50 mg/kg/d) | circulating blasts (human CD45+ cells in peripheral blood) ([6]; 50 mg/kg/d) | potentiation of the activity of STATTIC [9] | potentiation of the activity of doxorubicin [9] | leukemia cell survival [10] | reduction in Survivin and Bcl-xL mRNA [11] | IC50 [12]
COC1=C(C=C(C)C(=O)N(C)C)C(=O)c2ccccc2C1=O [Example 5a] | 5.5 µM | do not affect | do not affect | > 250 mg/kg | 1 µM | disrupt | – | – | – | – | – | – | – | – | – | – | –
CCCC(=CC1=C(OC)C(=O)c2ccccc2C1=O)C(=O)N(CC)CC [Example 5c] | 4.2 µM | do not affect | do not affect | > 250 mg/kg | 1 µM | disrupt | marked decrease | significant reduction | – | – | – | – | – | – | – | – | –
CCCC(=CC1=C(OC)C(=O)c2ccccc2C1=O)C(=O)N(C)C [Example 5e] | 5.5 µM | do not affect | do not affect | > 250 mg/kg | 2 µM | disrupt | – | – | – | – | – | – | – | – | – | – | –
CCCCCCCCC/C(=C\C1=C(C)C(=O)C(OC)=C(OC)C1=O)C(=O)O [Example E3330] | 29.7 µM | do not affect | do not affect | > 250 mg/kg | – | disrupt | – | – | significant leukemia cell apoptosis; also recorded: induces leukemia cell apoptosis | 20 to 30 µM | marked decrease | significant reduction | potentiates | potentiates | markedly inhibits | 2-10 fold | 10 to 30 µM

— US9315481B2, “Compounds and methods for treating leukemia” (INDIANA UNIVERSITY RESEARCH AND TECHNOLOGY CORPORATION, priority 2012, dated 2016)
